The conditions of data set [1]: background; compared with gadolinium alone; cited from earlier work.
Data set [2] in a line: In vitro relaxivity of liposomal contrast agents at 0.5 Tesla (Table I). It is filed as physicochemical. As to conditions: 0.5 Tesla (21.3 MHz); liposomes EPC/cholesterol 8:2, 33 mole percent compound. The protocol: Liposomal contrast agents of the invention, prepared in accordance with Example 8, were serially diluted from a stock solution of known concentration. Diluted concentrations for testing were held constant at 0.5 mM, 0.25 mM, 0.125 mM, 0.100 mM, 0.05 mM, and 0.025 mM, respectively. Samples were scanned on a Toshiba MRT 50A 0.5 Tesla (21.3 MHz) clincal magnet equipped with a QD head coil (Toshiba MRI scanner, Nasu, Japan). Signal intensities for resulting scans were then statistically analyzed using a computer curve fitting program (Fit All, MTR Software, version 1.1). Resulting relaxivities were regressed against the concentration to determine R1 (1/T1 mmol sec^-1) and R2 ([…]). The results were compared with similar scans for other compounds not within the scope of the present invention. Specifically, as a comparison for the contrast agents of the invention, 0.5 Tesla scans were made of Gd-DTPA (no liposome), Mn-EDTA-MEA (no liposome), Mn-EDTA-MEA (incorporated into a liposome of 0.1 micron), and phosphate buffered saline (PBS).
In all liposome examples in Table I, the lipid concentration is 200 mM, and all liposomes are composed of 80 mole percent egg phosphatidyl choline (EPC) and 20 mole percent cholesterol. […]

The nature of data set [3]: In vitro relaxivity of Mn-EDTA-DDP and Mn-EDTA-DDP albumin suspensions at 0.5 Tesla (Table III). In kind it is physicochemical. As to conditions: 0.5 Tesla (21.3MHz), in mM^-1 s^-1. Here is the method:
Mn-EDTA-DDP and Mn-EDTA-DDP albumin suspensions (contrast agents within the scope of the invention) were prepared in accordance with Example 11, except that water instead of saline was used. The samples scanned by NMR using a 0.5 Tesla (21.3MHz) Toshiba MRI scanner (Nasu, Japan) to determine relaxivity. The results were compared with similar scans for other compounds not within the scope of the invention. Specifically, scans were made of contrast agent of the invention, Mn-EDTA-DDP, Mn-EDTA-DDP albumin suspensions (both heated to 55° C., and unheated), and compared with scans of PBS, Gd-DTPA, MnCl2, and MnCl2 albumin suspensions. MnCl2, and the MnCl2 liposomes were prepared in accordance with Example 15.

Data set [4] relates to rats bearing hepatic tumors (C5 clonal derivative epithelioid neoplasms). As to the kind of experiment: In vivo efficacy, MR imaging at 1.5 Tesla of rats bearing hepatic tumors (Tables IV A-D). Also on record: species or system rat. As to conditions: i.v.; for Tumor Contrast To Noise: 30 minute delay. Here is the method:
Mn-EDTA-ODP and Mn-EDTA-DDP liposomes of both 30 nm and 100 nm (contrast agents within the scope of the invention) were prepared in accordance with Example 8, injected intraveneously via a tail vein injection into rats bearing hepatic tumors (C5 clonal derivative epithelioid neoplasms), and the rats imaged using a 1.5 Tesla GE Signa Clinical Magnet equipped with a linear knee coil. Animals were anesthesized with a 10:1 mixture v/v of ketamine (100 mg/ml) and acepoumozine (10 mg/ml) prior to imaging. Imaging parameters were: TR=250; TE=12; Matrix=256×192; NEX=8; FOV 16 cm; Slice Thickness=3 mm; Slice Gap=1 mm. Images were taken in the coronal plane, mapped off an axial scout image. For comparison, rats were also injected with MnCl2, and MnCl2 liposomes, prepared in accordance with Example 15.
In Table IV A, imaging was preformed with one rat at each dose. S/N denotes signal to noise ratio.
In Table IV B, the "*" denotes a 30 minutes delay in imaging. Also, NA denotes that imaging was not done at the indicated dosage. The liposomes employed were composed of 80 mole percent egg phosphatidylcholine (EPC) and 20 mole percent cholesterol. With the Mn-EDTA-DDP liposomes, there was a 1:3 molar ratio of Mn-EDTA-DDP to lipid in the liposomes (lipid was 8:2 EPC/cholesterol). The data was obtained from one rat imaged at each dose.
In Table IV C, NT denotes that no tumors were detected, and NA denotes that imaging not done at the indicated dosage.
In Table IV D, NT denotes that no tumors were detected, and NA denotes that imaging not done at the indicated dosage.

The subject of another data set is Outbred ICR mice. As to the kind of experiment: In vivo toxicity, LD50 in mice after intravenous tail vein injection (Table V). Also on record: species or system mouse. As to conditions: i.v. tail vein. Here is the method: Outbred ICR mice (Harlan Sprague Dawley, Indianapolis, Ind.) were injected intraveneously via a tail vein injection with various doses of Mn-EDTA-DDP and Mn-EDTA-DDP liposomes, prepared in accordance with Example 8, and the LD50 measured. As a comparison, the mice were also injected with MnCl2 and MnCl2 liposomes.
In Table V, MnCl2 liposomes denotes manganese chloride salt entrapped in 100 nm diameter liposomes comprised of 8:2 EPC/cholesterol. Also, Mn-EDTA-DDP in liposomes refers to 100 nm liposomes comprised of 1:3Mn-EDTA-DDP to lipid (where the lipid is 8:2 EPC/cholesterol).

Consider `O=C([O-])CN(CCN(CC(=O)[O-])CC(=O)[O-])CCN(CC(=O)[O-])CC(=O)[O-].[Gd+3]` [Gd-DTPA], for which the “toxicity (in words)” value in data set [1] is “much less toxicity”. In data set [2], the “R1 (1/T1), relaxivity” value is 4.68 ± 0.279 per millimole of paramagnetic and the “R2 (1/T2), relaxivity” value is 5.17 ± 0.148 per millimole of paramagnetic. Moreover, in data set [3] (1.0 mM), the “R1, relaxivity” value is listed as 4.58 ± 0.143 and the “R2, relaxivity” value is listed as 5.41 ± 0.65.

As for `[Cl][Mn][Cl]` [MnCl2, manganese chloride], in data set [3] (with and without albumin), the “R1, relaxivity” value was determined as 8.73 ± 0.928. In data set [3] (with and without albumin), the “R2, relaxivity” value is on record as 39.45 ± 0.515. Further, the “Tumor Contrast To Noise” value in data set [4] (0.5 μM/kg) came out at 12; in data set [4] (1.0 μM/kg), 16; in data set [4] (2.5 μM/kg), 35.9; in data set [4] (5.0 μM/kg) it was 31.3; in data set [4] (10.0 μM/kg) it was 29.6. Also, the “Percent Liver Enhancement” value worked out at 0% in data set [4] (0.5 μM/kg, delayed post (30 minutes delay)); 0% in data set [4] (0.5 μM/kg, post); 0% in data set [4] (1.0 μM/kg, delayed post (30 minutes delay)); 0% in data set [4] (1.0 μM/kg, post); 29.4% in data set [4] (2.5 μM/kg, delayed post (30 minutes delay)); 25% in data set [4] (2.5 μM/kg, post). Besides, the “Percent Liver Enhancement” value is 21% in data set [4] (5.0 μM/kg, delayed post (30 minutes delay)); 43% in data set [4] (5.0 μM/kg, post); 61% in data set [4] (10 μM/kg, delayed post (30 minutes delay)); 81% in data set [4] (10 μM/kg, post). Further, the “Contrast to Noise” value in data set [4] (0.5 μM/kg, post) stood at 19; in data set [4] (0.5 μM/kg, pre), 28; in data set [4] (1.0 μM/kg, post), 23; in data set [4] (1.0 μM/kg, pre) it was 37.5; in data set [4] (2.5 μM/kg, post) it was 17.9; in data set [4] (2.5 μM/kg, pre), 13.1. Besides, the “Contrast to Noise” value in data set [4] (5.0 μM/kg, post) is given as 28.3; in data set [4] (5.0 μM/kg, pre), 21.3; in data set [4] (10.0 μM/kg, post), 29.2; in data set [4] (10.0 μM/kg, pre) it was 9.3. In the data set on Outbred ICR mice, the “Interpolated LD50s” value was found to be 250 µmol/kg.

In the case of “Manganese N,N'-Bis-(Carboxy-Decylamidomethyl-N-2,3-Dihydroxypropyl)-Ethylenediamine- N,N'-Diacetate [Mn-EDTA-DDP]”, in data set [3] (with and without albumin), the “R1, relaxivity” value worked out at 9.83 ± 0.332 and the “R2, relaxivity” value is on record as 15.20 ± 0.393. For the same compound, in the data set with Outbred ICR mice, the “Interpolated LD50s” value worked out at 240 µmol/kg.

(Values after patent US5762910A, “Liposoluble compounds useful as magnetic resonance imaging agents” (ImaRx Pharmaceutical Corp., priority 1996, dated 1998).)
